The results in this text go back to patent US20240376411A1, “IMPROVED PERFUME COMPOSITIONS COMPRISING SULFUR-CONTAINING PRO-FRAGRANCE COMPOUNDS” (FIRMENICH SA, priority 2021, published 2024).

A short description of series [1]: logP above 4 (octanol-water partition coefficient). Particulars: Yes/No.
Series [2] is described as follows: Sensorial evaluation (hydrogen sulfide smell) of perfume compositions upon 1 and 2 weeks of storage at 50° C. Type of series: physicochemical. The conditions noted are these: for amount in the perfume composition that does not lead to an unpleasant hydrogen sulfide smell upon storage: conclusion from Tables 2 to 4, storage at 50° C. An excerpt: To the first perfume composition, a perfumery raw material that promotes the formation of hydrogen sulfide ((−)-(2E)-2-ethyl-4-[(1R)-2,2,3-trimethyl-3-cyclopenten-1-yl]-2-buten-1-ol) has been added at various amounts (5 wt. %, 10 wt. %, 20 wt. %, 30 wt. %, and 40 wt. %, respectively, based on the total weight of the perfume composition). For each amount, it has been tested whether a hydrogen sulfide malodor could be perceived upon storage of the final perfume composition for 1 and 2 weeks, respectively, at 50° C.
Likewise, to the second perfume composition, a perfumery raw material that promotes the formation of hydrogen sulfide ((+/−)-3-methyl-5-phenyl-1-pentanol) has been added at various amounts (5 wt. %, 10 wt. %, 20 wt. %, 30 wt. %, and 40 wt. %, respectively, based on the total weight of the perfume composition). For each amount, it has been tested whether a hydrogen sulfide malodor could be perceived upon storage of the final perfume composition for 1 and 2 weeks, respectively, at 50° C.
Likewise, to the third perfume composition, a perfumery raw material that promotes the formation of hydrogen sulfide ((+/−)-3,7-dimethyl-6-octen-1-ol) has been added at various amounts (5 wt. %, 10 wt. %, 20 wt. %, 30 wt. %, and 40 wt. %, respectively, based on the total weight of the perfume composition). For each amount, it has been tested whether a hydrogen sulfide malodor could be perceived upon storage of the final perfume composition for 1 and 2 weeks, respectively, at 50° C.

Where [3] appears, read: 5 wt. % of the raw material in the perfume composition, even after 2 weeks of storage.
Where [4] appears, read: 10 wt. % of the raw material in the perfume composition, even after 2 weeks of storage.
Where [5] appears, read: above 20 wt. % of the raw material, after 1 week of storage.

As for `CC(CCO)CCc1ccccc1` (racemic) [(+/−)-3-methyl-5-phenyl-1-pentanol], the “logP > 4” value in series [1] is “No”. The “unpleasant hydrogen sulfide smell” value is on record as “no unpleasant hydrogen sulfide smell could be perceived” in series [2] (setting [3]), “no unpleasant hydrogen sulfide smell could be perceived” in series [2] (setting [4]) and “unpleasant hydrogen sulfide smell was perceived” in series [2] (setting [5]). For the same molecule, in series [2], the “amount in the perfume composition that does not lead to an unpleasant hydrogen sulfide smell upon storage” value was “up to 19 wt. %”.

`CC(C)=CCCC(C)CCO` (racemic) [(+/−)-3,7-dimethyl-6-octen-1-ol]: the “logP > 4” value in series [1] is on record as “No”. In addition, the “unpleasant hydrogen sulfide smell” value is given as “no unpleasant hydrogen sulfide smell could be perceived” in series [2] (setting [3]), “no unpleasant hydrogen sulfide smell could be perceived” in series [2] (setting [4]) and “unpleasant hydrogen sulfide smell was perceived” in series [2] (setting [5]). For the same molecule, the “amount in the perfume composition that does not lead to an unpleasant hydrogen sulfide smell upon storage” value in series [2] is recorded as “up to 19 wt. %”.

Take `CC/C(=C\C[C@H]1CC=C(C)C1(C)C)CO` [(−)-(2E)-2-ethyl-4-[(1R)-2,2,3-trimethyl-3-cyclopenten-1-yl]-2-buten-1-ol]: the “logP > 4” value in series [1] is “Yes”. The “unpleasant hydrogen sulfide smell” value in series [2] (setting [3]) is recorded as “no unpleasant hydrogen sulfide smell could be perceived”; in series [2] (setting [4]), “no unpleasant hydrogen sulfide smell could be perceived”; in series [2] (at 20 wt. % (and above) of the raw material, only after 1 week of storage at 50° C.) it was “unpleasant hydrogen sulfide smell was perceived”. Also, the “amount in the perfume composition that does not lead to an unpleasant hydrogen sulfide smell upon storage” value in series [2] is “up to 19 wt. %”.
